According to patent US20050069877A1, “Protein modification and maintenance molecules” (priority 2001, published 2005):

How the values were obtained:
[1] = test system: expression of SEQ ID NO:35 in human peripheral blood mononuclear cells (PBMCs); assay: Microarray expression of SEQ ID NO:35 in prednisone-treated PBMCs; type: cell-based; details: PBMCs pooled from 6 healthy donors, 5 and 25 μM, 24 hours, compared to untreated controls
Text: (§1) Full length cDNAs, Expressed Sequence Tags (ESTs), or fragments or oligomers thereof may comprise the elements of the microarray. Fragments or oligomers suitable for hybridization can be selected using software well known in the art such as LASERGENE software (DNASTAR). The array elements are hybridized with polynucleotides in a biological sample. The polynucleotides in the biological sample are conjugated to a fluorescent label or other molecular tag for ease of detection. After hybridization, nonhybridized nucleotides from the biological sample are removed, and a fluorescence scanner is used to detect hybridization at each array element. Alternatively, laser desorbtion and mass spectrometry may be used for detection of hybridization. The degree of complementarity and the relative abundance of each polynucleotide which hybridizes to an element on the microarray may be assessed. In one embodiment, microarray preparation and usage is described in detail below.
(§2) Total RNA is isolated from tissue samples using the guanidinium thiocyanate method and poly(A)^+ RNA is purified using the oligo-(dT) cellulose method. […]
(§3) Sequences of the present invention are used to generate array elements. […] Array elements are amplified in thirty cycles of PCR from an initial quantity of 1-2 ng to a final quantity greater than 5 μg. […]

[2] = intranasal; greater than those produced by hydrocortisone; cited from earlier work
[3] = test system: expression of SEQ ID NO:33 in human C3A liver cell line; assay: Microarray expression of SEQ ID NO:33 in compound-treated C3A liver cells; type: cell-based; details: human C3A liver cell line incubated for varying lengths of time with compound
Text: The array elements are hybridized with polynucleotides in a biological sample. The polynucleotides in the biological sample are conjugated to a fluorescent label or other molecular tag for ease of detection. After hybridization, nonhybridized nucleotides from the biological sample are removed, and a fluorescence scanner is used to detect hybridization at each array element. […] The degree of complementarity and the relative abundance of each polynucleotide which hybridizes to an element on the microarray may be assessed.
Total RNA is isolated from tissue samples using the guanidinium thiocyanate method and poly(A)^+ RNA is purified using the oligo-(dT) cellulose method. Each poly(A)^+ RNA sample is reverse transcribed using MMLV reverse-transcriptase, 0.05 pg/μl oligo-(dT) primer (21 mer), 1× first strand buffer, 0.03 units/μl RNase inhibitor, 500 μM dATP, 500 μM dGTP, 500 μM dTTP, 40 μM dCTP, 40 μM dCTP-Cy3 (BDS) or dCTP-Cy5 (Amersham Biosciences). The reverse transcription reaction is performed in a 25 ml volume containing 200 ng poly(A)^+ RNA with GEMBRIGHT kits (Incyte). Specific control poly(A)^+ RNAs are synthesized by in vitro transcription from non-coding yeast genomic DNA. […]

[4] = greater than progesterone; cited from earlier work
[5] = test system: expression of SEQ ID NO:44 in peripheral blood mononuclear cells; assay: Microarray expression of SEQ ID NO:44 in IL12-treated PBMCs; type: cell-based, human; details: PBMCs from a pool of healthy donors, 1 ng/ml, 24 hours
Text: as §1, §2, §3

Molecule: C[C@]12C=CC(=O)C=C1CC[C@@H]1[C@@H]2C(=O)C[C@@]2(C)[C@H]1CC[C@]2(O)C(=O)CO [prednisone]
- expression of SEQ ID NO:35 [1]: decreased by at least two-fold

Molecule: C[C@H]1C[C@H]2[C@@H]3CCC4=CC(=O)C=C[C@]4(C)[C@@]3(Cl)[C@@H](O)C[C@]2(C)[C@@]1(O)C(=O)CO [beclomethasone]
- anti-inflammatory and vasoconstrictive effects relative to hydrocortisone [2]: 5000 times
- expression of SEQ ID NO:33 [3]: reduced by at least two fold

Molecule: 6α-methyl-17-hydroxyprogesterone [medroxyprogesterone]
- expression of SEQ ID NO:33 [3]: reduced by at least two fold
- pharmacological activity relative to progesterone [4]: about 15 times

B1: IL12: pleiotropic cytokine produced by macrophages and B lymphocytes (protein, UniProt P29459 23-219; P29460 23-328, looked up)
Interleukin-12 subunit alpha: RNLPVATPDPGMFPCLHHSQNLLRAVSNMLQKARQTLEFYPCTSEEIDHEDITKDKTSTVEACLPLELTKNESCLNSRETSFITNGSCLASRKTSFMMALCLSSIYEDLKMYQVEFKTMNAKLLMDPKRQIFLDQNMLAVIDELMQALNFNSETVPQKSSLEEPDFYKTKIKLCILLHAFRIRAVTIDRVMSYLNAS
Interleukin-12 subunit beta: IWELKKDVYVVELDWYPDAPGEMVVLTCDTPEEDGITWTLDQSSEVLGSGKTLTIQVKEFGDAGQYTCHKGGEVLSHSLLLLHKKEDGIWSTDILKDQKEPKNKTFLRCEAKNYSGRFTCWWLTTISTDLTFSVKSSRGSSDPQGVTCGAATLSAERVRGDNKEYEYSVECQEDSACPAAEESLPIEVMVDAVHKLKYENYTSSFFIRDIIKPDPPKNLQLKPLKNSRQVEVSWEYPDTWSTPHSYFSLTFCVQVQGKSKREKKDRVFTDKTSATVICRKNASISVRAQDRYYSSSWSEWASVPCS
- expression of SEQ ID NO:44 [5]: decreased by at least two-fold
